According to patent US10039807B2, “bFGF-polymer conjugates, methods for making the same and applications thereof” (THE REGENTS OF THE UNIVERSITY OF CALIFORNIA, priority 2011, dated 2018):

Assays:
[1] = test system: Human Dermal Fibroblast (HDF) cells; assay: Stability study of bFGF and bFGF conjugates under treatments, read out as HDF proliferation; format: cell-based; conditions: for percent cell growth after trypsin treatment: 0.1% w/v trypsin for 16 hours at 4° C.; for bioactivity after mildly acidic conditions: pH 4.7 for 16 hours at 4° C.; for percent cell growth after storage: storage at 4° C. for 16 hours
Protocol: (§1) Preparation of untreated and treated samples is detailed in the Methods section. The concentrations of bFGF and bFGF in the conjugates under treatment were 0.05 ng/μL. The concentration of heparin under treatment was 0.075 ng/μl or 0.05 μg/μl, while the concentrations of the unconjugated polymers were 0.075 ng/μl. The final concentrations of bFGF and bFGF conjugates in the medium were 1 ng/ml. Incubation of HDF with each of the samples was carried out for 72 hours. CellTiter® blue assay was performed to quantify percent cell growth. Data was normalized to the blank sample (no bFGF added) in that same treatment group. Each sample was done with six repeats, and the whole experiment was repeated eight times including one blinded study, except (+)bFGF(+)1.5 ng/ml pPEGMA and (+)bFGF-pPEGMA were repeated four times. Error bars are SEM. Statistical analysis was done using two-way ANOVA and Student's T-test. * denotes p<0.05, ** denotes p<0.01 and *** denotes p<0.001 between the sample indicated and the (+) bFGF (−) heparin within that same stress set.
To study the stability of bFGF and bFGF conjugates under various treatments (storage, acidic conditions, protease degradation, and heat), the protein and the conjugates were diluted in medium after these treatments and tested for their bioactivity in promoting HDF proliferation.
The control blank group contained 15 μl of D-PBS. The 15 μl/experimental group was split into 4 vials of 3 μl/vial for four separate treatments. In one set of the 3 μl-vials, 27 μl of D-PBS was added to each vial and the samples were stored at 4° C. for 16 hours. In another set of 3 μl-vials, 27 μl of pH 4.7 PBS was added to each vial and the samples were stored at 4° C. for 16 hours. In the third set of 3 μl-vials, 27 μl of 0.1% Trypsin was added to each vial and the samples were stored at 4° C. for 16 hours. The fourth set of 3 μl-vials were stored at 4° C. for 16 hours before 27 μl of 1% TFA was added and treated for 2 hours at 4° C. The samples under no treatment and under heat treatment were prepared fresh in the same way towards the end of the 16 hour-treatment of other samples. The samples under heat treatment were placed in dry bath at 55° C. for 30 minutes. […] Then, the medium samples were used for cell proliferation assay as described above. After an incubation for 72 hours at 37° C., 5% CO2, CellTiter-Blue® assay was carried out to evaluate cell proliferation. […] Each group was done with six replicates, and the whole experiment was repeated four times, one of which was a blinded study. A two-way ANOVA and student's T-test were done for statistical analysis.
The chosen treatments represent environmental stresses that the growth factor (or any heparin-binding protein) could be exposed to. For example, storage in the unfrozen form and exposure to heat during delivery, transport, or use were represented by the “Storage at 4° C. for 16 hours” treatment and “Heat at 55° C. for 30 minutes” treatment, respectively. Incubation at “pH 4.7 for 16 hours” is relevant because mildly acidic conditions are necessary to inhibit bacterial growth during wound treatment.
Furthermore, the stability of the bFGF-heparin mimicking conjugate was challenged against proteolytic degradation and extreme acidic conditions by incubating with 0.1% w/v trypsin for 16 hours and 1% trifluoroacetic acid (TFA) for 2 hours, respectively. The starting concentrations of bFGF and bFGF in the conjugates were equivalent and the concentrations of the unconjugated polymers and heparin were the same at approximately stoichiometric ratios to bFGF. The positive control group contained a large excess (700 molar) of heparin to bFGF. The negative control was native bFGF alone.

[2] = test system: Human Dermal Fibroblast (HDF) cells; assay: Bioactivity after 4-week storage at 4° C., HDF proliferation; format: cell-based; conditions: 4 weeks of storage at 4° C., then 1 ng/ml on HDF for 72 hours
Protocol: FIG. 4B depicts exemplary bioactivity study of bFGF-heparin mimicking (bFGF-pSS-co-PEGMA) conjugate in promoting HDF proliferation compared to other control groups before and after the treatments. Preparation of untreated and treated samples is detailed in the Methods section. The concentrations of bFGF and bFGF in the conjugates under treatment were 0.05 ng/μL. The concentration of heparin under treatment was 0.075 ng/μl or 0.05 μg/μl, while the concentrations of the unconjugated polymers were 0.075 ng/μl. The final concentrations of bFGF and bFGF conjugates in the medium were 1 ng/ml. Bioactivity study of bFGF-heparin mimicking polymer, bFGF-pSS-co-PEGMA conjugate, after 4-week storage at 4° C. Data was normalized to the blank sample (contained medium only). Each group was done with six replicates.
Bioactivity study of bFGF-pSS-co-PEGMA conjugate after long-time storage was also tested. After 4 weeks of storage 4° C.
In these experiments, an amount of 30 μl of each experimental group in D-PBS was made up to contain 0.05 ng/μ1 of bFGF or bFGF-pSS-co-PEGMA conjugate. The positive control group was prepared to contain 0.05 ng/μl of bFGF and 0.05 μg/μl of heparin. The samples were then stored at 4° C. for 4 weeks. […]

[3] = test system: Human Dermal Fibroblast (HDF) cells; assay: Bioactivity study: HDF proliferation, CellTiter-Blue assay, untreated samples; format: cell-based; conditions: no stress, samples stored at −80° C. before use; 1 ng/ml bFGF or bFGF in conjugate; 72 hours; normalized to blank
Protocol: as §1
HDF cells were trypsinized and resuspended in UltraCULTURE™ serum-free medium supplemented with 2 mM L-Glutamine and 100 u/ml penicillin and 100 μg/ml streptomycin. The cells were plated at a concentration of 2000 cells/well in a 96-well plate and allowed to adhere over 16 hours at 37° C., 5% CO2. […] Then, the medium in the wells was replaced with 100 μl of each sample. After an incubation for 72 hours at 37° C., 5% CO2, CellTiter-Blue® assay was carried out to evaluate cell proliferation. […] Each group was done with six replicates, and the whole experiment was repeated four times, one of which was a blinded study.
HDFs were used as the in vitro model to evaluate the bioactivity of the bFGF-heparin mimicking polymer conjugate before and after exposure to various stresses.

BaF3 cells (FR1C-11) = assay: Proliferation study of BaF3 cells expressing FGFR1 and lacking heparan sulfate proteoglycans; format: cell-based; conditions: 42 hours, medium lacking IL-3, normalized to blank; for percent cell growth, bFGF or conjugate alone: 1 ng/ml, without heparin
Protocol: BaF3 cells (FR1C-11), which express FGFR1 but lack heparin sulfate proteoglycans, were seeded at a density of 20,000 cells/well in cultured medium lacking IL-3 in a 96-well-plate. […] The cells were incubated for 42 hours. CellTiter® blue assay was performed to quantify percent cell growth. Data was normalized to blank sample group. Each group was done with six replicates. Error bars are standard deviations.
Heparin (as cell surface receptors called heparan sulfate proteoglycans) is also known to increase the mitogenic activity of bFGF by increasing binding to the bFGF receptors (FGFRs). In addition, heparin promotes bFGFR dimerization by providing the “glue” between two bFGFs and two FGFRs (see crystal structure, FIGS. 12B and 12C). In fact, this heparin assisted, ligand-induced dimerization of bFGFRs is required for activity. […] In some embodiments, the new heparin mimicking polymer can induce the dimerization and uptake the FGFRs.
While bFGF interacts directly with cells by binding to FGFRs, signal transduction cannot occur without the simultaneous interaction with heparan sulfate proteoglycan (HS) cell surface receptors. […] BaF3 cells are engineered to express FGFR1 and lack cell-surface HS; addition of soluble heparin is required to activate the cells with bFGF.

[4] = test system: Human Dermal Fibroblast (HDF) cells; format: cell-based; conditions: 1 ng/ml bFGF or conjugate, 72 hours, with 125 nM PD173074
Protocol: FIG. 6 depicts the exemplary results of an inhibition assay. The medium samples were prepared with and without 125 nM of PD173074. 2,000HDF cells/well was incubated with each of the sample for 72 hours at 37° C., 5% CO2. Each sample group was done with six replicates, and the whole experiment was repeated three times.
To confirm that the bFGF-heparin mimicking conjugate promoted cell growth by the same transduction pathway as by native bFGF, a potent inhibitor for FGF receptor 1 (FGFR1) was included in the media. PD173074 (N-[2-[[4-(diethylamino)butyl]amino]-6-(3, 5-dimethoxyphenyl)pyrido[2, 3-d]pyrimidin-7-yl]-N′-(1, 1-dimethylethyl)-urea) competes with adenosine-5′-triphosphate (ATP) for binding to the receptors, a key step for FGFR phosphorylation, and shuts down the signal transduction pathways associated with cell proliferation.
HDF cells were trypsinized and resuspended in UltraCULTURE™ serum-free medium supplemented with 2 mM L-Glutamine and 100 u/ml penicillin and 100 μg/ml streptomycin. […] On the next day, the experimental groups were prepared to contain 1 ng/ml of bFGF, or 1 ng/ml of bFGF with 1 μg/ml of heparin, or 1 ng/ml of bFGF-pSS-co-PEGMA; all with an addition of 125 nM of the inhibitor PD173074. The control groups were the replicates but without the addition of the inhibitor. Then, the medium in the wells was replaced with 100 μl of each sample. […]

[5] = test system: Human Dermal Fibroblast (HDF) cells; conditions: 1 ng/ml to 1 mg/ml for 24 hours in the absence of bFGF
Protocol: 5,000 HDF cells/well was incubated with various concentrations of each polymer for 24 hours at 37° C., 5% CO2. Then, each well was washed twice with D-PBS and subsequently incubated with 1 μM Calcein AM 4 μM Ethidium homodimer-1 in D-PBS for 20 minutes at 37° C., 5% CO2. Percentage of live cells was calculated by dividing the number of live cells by the total number of live and dead cells. Each experimental group was done with four replicates, and the whole experiment was repeated four times, one of which was a blinded study. Error bars are SEMs.
HDF cells were trypsinized and resuspended in fibroblast growth medium lacking bFGF. The cells were plated at a concentration of 5000 cells/well in a 48-well plate and allowed to adhere over 16 hours at 37° C., 5% CO2. Then, the medium in the wells was replaced with 200 μl of the working medium containing various amount of polymer/heparin. After an incubation of 24 hours at 37° C., 5% CO2, cell viability was assessed using LIVE/DEAD® viability/cytotoxicity assay. Briefly, the cells were washed twice with pre-warmed D-PBS, then incubated with 200 μl of 1 μM Calcein AM and 4 μM Ethidium homodimer-1 in D-PBS for 20 minutes at 37° C., 5% CO2. […] The numbers of live and dead cells were counted manually using NIH Image J software, and percent live cells was calculated by dividing the number of live cells by the total number of live and dead cells. […]

[6] = then 1 ng/ml on HDF for 72 hours

Which results are given for “bFGF-pSS-co-PEGMA: bFGF covalently conjugated via a reversible disulfide bond to one heparin mimicking polymer pSS-co-PEGMA (mono-conjugate)”?
percent cell growth after trypsin treatment [1, 6]: 176±11%; percent cell growth after TFA treatment ([1]; 1% trifluoroacetic acid (TFA) for 2 hours, then 1 ng/ml on HDF for 72 hours): 162±17%; percent cell growth after heat treatment ([1]; heat at 55° C. for 30 minutes, then 1 ng/ml on HDF for 72 hours): 167±12%; bioactivity after mildly acidic conditions [1, 6]: statistically the same as before treatment; percent cell growth after storage [1, 6]: 210±10%; stability to the treatments (overall) ([1]; storage, pH 4.7, trypsin, 1% TFA, heat, read out as HDF proliferation): stable; activity after long-time storage [2]: completely retained; percent cell growth [3]: 213±13%; percent cell growth, bFGF or conjugate alone (BaF3 cells (FR1C-11)): did not induce cell growth; percent cell growth, bFGF or conjugate alone (BaF3 cells (FR1C-11); listed as bFGF-pSS-co-pPEGMA): 147±14%; percent cell growth in the presence of PD173074 [4]: 85±11%

How did the “percent cell growth after trypsin treatment” value [1, 6] turn out when “bFGF-poly(ethylene glycol) methyl ether methacrylate) [bFGF-pPEGMA, reference compound]” was run?
Its value is “some stability”.

What about the “bioactivity after mildly acidic conditions” value [1, 6] of the same substance?
Its value is “some stability”.

And the “percent cell growth after storage” value [1, 6]?
The value was “some stability”.

What about the percent cell growth [3] of the same substance?
Its percent cell growth is 190±6%.

For “bFGF: Basic fibroblast growth factor, a 16-kDa polypeptide, also called fibroblast growth factor 2”, which percent cell growth [3] is on record?
The percent cell growth was 192±9%.

And the “percent cell growth, bFGF or conjugate alone” value (BaF3 cells (FR1C-11))?
The value was 127±12%.

What about the “percent cell growth in the presence of PD173074” value [4] of the same substance?
Its value is 88±5%.

Which results are given for heparin [reference compound]?
percent cell growth, additive given with bFGF (BaF3 cells (FR1C-11); 1 μg/ml of additive with 1 ng/ml of bFGF): 384±35%; percent cell viability [5]: the same as no polymer added
